This passage reports activation (light induction) and AC40 results from PubChem BioAssay AID686929 (Broad Institute, 2013).

Assay [1] can be described thus: V. cholerae BH1578 lux luminescence induction, luxS cqsA deficient, confirmatory dose response (AID 686929). The following applies: V. cholerae BH1578 lux luminescence induction, 6 h.
In assay [2] the test system is V. cholerae BH1578 lux luminescence induction, 6 h. Described as above.

Several values for one entry are separate records, joined by “and”; a condition that tells them apart may be missing. Identical values can stand only once. Activity calls are given as the source filed them. No rule for the calls is given here.

For `Cc1ccc(-n2cnc(=O)c3ccccc32)cc1Cl`, the activation (light induction) in assay [1] (at 80 µM (top of the series)) was 0.197% (inactive).
For the compound `CCC(C)(C)C(=O)Nc1nnc(-c2ccc3c(c2)OCCO3)o1`, the activation (light induction) in assay [1] (at 80 µM (top of the series)) is -0.001% (inactive).
As for `O=C(CC1CCCCC1)Nc1nnc(-c2ccc3c(c2)CCCC3)o1`, the activation (light induction) in assay [1] (at 35 µM (top of the series)) was 0.065% (inactive).
For the compound `CC(C)(C)OC(=O)N1CCC(C(=O)Nc2nnc(-c3ccc4c(c3)OCCO4)o2)CC1`, the activation (light induction) in assay [1] (at 100 µM (top of the series)) is 0.022% (inactive).
As for `O=c1ncn(-c2cccc(Cl)c2)c2cccc(Cl)c12`, the activation (light induction) in assay [1] (at 80 µM (top of the series)) is 0% (inactive).
For `COc1ccc(-n2cnc(=O)c3ccccc32)cc1Cl`, the activation (light induction) in assay [1] (at 80 µM (top of the series)) was 0.017% (inactive).
For the compound `Cc1ccc2cc3c(NC(=O)c4ccc(C)o4)nn(C)c3nc2c1`, the activation (light induction) in assay [1] (at 100 µM (top of the series)) was -0.007% (inactive).
Turning to `C(=N\c1nnc(-c2ccc3c(c2)OCCO3)o1)/c1ccccc1`, the activation (light induction) in assay [1] (at 100 µM (top of the series)) was 0.009% (inactive).
Consider `O=c1ncn(-c2ccc(Cl)c(Cl)c2)c2ccccc12`, for which the activation (light induction) in assay [1] (at 80 µM (top of the series)) is 0.027% (inactive).
With `O=C(Nc1nnc(-c2ccc3c(c2)OCCO3)o1)C1CCCCC1`, the AC40 in assay [2] was 5.45 µM and 1.91 µM.
With `COc1ccc(-c2nnc(NC(=O)C3CCCCC3)o2)cc1`, the AC40 in assay [2] is > 100 µM (inactive).
`Cn1ccc(NC(=O)c2ccco2)n1`: the activation (light induction) in assay [1] (at 100 µM (top of the series)) was 0.065% (inactive).
The same measure, in the same setting: next, `Cn1nc(NC(=O)c2ccco2)c2cc3ccc(C(C)(C)C)cc3nc21`: -0.001% (inactive).
Turning to `O=c1nc(Cc2ccccc2)n(-c2cccc(Cl)c2)c2ccccc12`, the activation (light induction) in assay [1] (at 80 µM (top of the series)) was 0.573% (inactive).
Regarding `CCn1nnnc1NC(C)c1ccc(N2CCCC2)cc1` (stereo unspecified), the activation (light induction) in assay [1] (at 100 µM (top of the series)) is 11.2% (inactive).
As for `CCOC(=O)c1ccccc1Nc1cccc(Cl)c1`, the activation (light induction) in assay [1] (at 80 µM (top of the series)) is 0.004% (inactive).
Turning to `Cc1ccc2cc3c(NC(=O)c4cccs4)nn(C)c3nc2c1`, the AC40 in assay [2] is > 80 µM (inactive).
`COc1ccc2cc3c(NC(=O)c4ccco4)nn(C)c3nc2c1`: in assay [2], the AC40 is 2.97 µM.
Take `COc1ccc(-c2nnc(NC(C)=O)o2)cc1`: the activation (light induction) in assay [1] (at 100 µM (top of the series)) was 0.061% (inactive).
Regarding `O=c1ncn(-c2cccc(Cl)c2)c2cc(Cl)ccc12`, the activation (light induction) in assay [1] (at 80 µM (top of the series)) was 0.003% (inactive).
With `O=c1ncn(-c2cccc(Cl)c2)c2ccc(Cl)cc12`, the activation (light induction) in assay [1] (at 80 µM (top of the series)) was 3.29% (inactive).
For `CCn1nnnc1NCc1ccc(C(C)C)cc1`, the AC40 in assay [2] was 0.923 µM.
As to `O=C(Nc1nnc(-c2ccc3c(c2)OCCO3)o1)C1CC1`, in assay [1] (at 100 µM (top of the series)), the activation (light induction) is 0.006% (inactive).
For `Cn1nc(NC(=O)c2ccco2)c2cccnc21`, the AC40 in assay [2] was 48.8 µM.
As to `O=c1ncn(-c2ccccc2Cl)c2ccccc12`, the activation (light induction) in assay [1] (at 80 µM (top of the series)) is 0.05% (inactive).
As to `O=C(Nc1nnc(-c2ccc(Cl)cc2)o1)C1CCCCC1`, the activation (light induction) in assay [1] (at 80 µM (top of the series)) was 0.013% (inactive).
In the case of `O=c1nc(-c2ccccc2)n(-c2cccc(Cl)c2)c2ccccc12`, the activation (light induction) in assay [1] (at 80 µM (top of the series)) is -0.004% (inactive).
Same read-out and setting: in the case of `Cc1ccc2c(c1)c(=O)ncn2-c1cccc(Cl)c1` it was 2.5% (inactive).
In the case of `Cc1cc(F)c2cc3c(NC(=O)c4ccco4)nn(C)c3nc2c1`, the AC40 in assay [2] was > 100 µM (inactive).
As for `NC(=O)c1ccccc1Nc1cccc(Cl)c1`, in assay [1] (at 80 µM (top of the series)), the activation (light induction) is 0.018% (inactive).
Regarding `Cc1ccc2cc3c(NC(=O)C4CCCC4)nn(C)c3nc2c1`, the AC40 in assay [2] was 73.5 µM.
Consider `O=C(Nc1nnc(-c2ccncc2)o1)C1CCC1`, for which, in assay [1] (at 100 µM (top of the series)), the activation (light induction) was 0.061% (inactive).
Regarding `CCCCCCCCCC(=O)[C@H](O)CC` (racemic), the AC40 in assay [2] is 11.5 µM.
Regarding `O=C(Nc1nnc(-c2ccc3c(c2)OCCO3)o1)C1CCCC1`, the activation (light induction) in assay [1] (at 80 µM (top of the series)) is 0.417% (inactive).
On the same count and under the same terms, in the case of `O=c1ncn(-c2ccc(F)c(Cl)c2)c2ccccc12` it was 1.31% (inactive).
Turning to `O=C(Nc1nnc(-c2ccc3c(c2)OCCO3)o1)C1CCC1`, the activation (light induction) in assay [1] (at 100 µM (top of the series)) is 0.011% (inactive).
As for `O=C(O)c1ccccc1Nc1cccc(Cl)c1`, the activation (light induction) in assay [1] (at 80 µM (top of the series)) was 0.019% (inactive).
With `Cc1cc2cc3c(NC(=O)c4ccco4)nn(C)c3nc2cc1C`, in assay [2], the AC40 is 45.7 µM.
For `O=C(Cc1ccc(-c2ccccc2)cc1)NC1CNC1`, the activation (light induction) in assay [1] (at 100 µM (top of the series)) is 0.02% (inactive).
Take `CC(C)c1ccc2cc3c(NC(=O)c4ccco4)nn(C)c3nc2c1`: in assay [1] (at 100 µM (top of the series)), the activation (light induction) was 0.254% (inactive).
For `O=C(CSc1nc2ccccc2c(=O)[nH]1)NC1CCCCC1`, the activation (light induction) in assay [1] (at 80 µM (top of the series)) was 0.005% (inactive).
Consider `O=c1ncn(-c2cccc(F)c2)c2ccccc12`, for which the activation (light induction) in assay [1] (at 80 µM (top of the series)) was 12.4% (inactive).
For the compound `Cc1ccc2cc3c(NC(=O)Cc4ccco4)nn(C)c3nc2c1`, in assay [1] (at 100 µM (top of the series)), the activation (light induction) was 0.2% (inactive).
As to `O=C(Cc1ccc(-c2ccccc2)cc1)NC1CCC1`, the AC40 in assay [2] is 1.74 µM.
Take `CN1CCC(C(=O)Nc2nnc(-c3ccc4c(c3)OCCO4)o2)CC1`: the activation (light induction) in assay [1] (at 100 µM (top of the series)) is 0.038% (inactive).
As for `COc1ccc(S(=O)(=O)Nc2nnc(-c3ccc4c(c3)OCCO4)o2)cc1`, in assay [1] (at 100 µM (top of the series)), the activation (light induction) is 0.008% (inactive).
